Reference: patent publication US20120035265A1, “COMPOSITIONS, METHODS, AND DEVICES FOR THE TREATMENT OF DYSMENORRHEA” (MediciNova, Inc., priority 2010, published 2012)

Experiments:
[1] = tested on: uterine muscle isolated from pregnant rats; experiment: Interaction of MN-221 and β-adrenoceptor antagonists on spontaneous contraction of uterine muscle isolated from pregnant rats (Schild regression); format: cell-based, rat; details: Rattus norvegicus
Description: The experimental operation of this study was as reported by T. Kawarabayashi et al.^4. After each SD-strain rat on Day 21 of pregnancy was exsanguinated to death, the uterus was isolated to prepare 8 myometrial samples (about 4 mm×10 mm) in the direction of the longitudinal muscle, with the adhesion to the placenta being avoided. Each myometrial sample was suspended with a load of about 1.0 g in an organ bath containing 10 mL of the Locke-Ringer solution at 37° C. […] After the suspended samples became stable for the amplitude and frequency of spontaneous contraction, each antagonist or distilled water was added to the bath to pretreat them for about 15 minutes. […] The contractile force of each sample was outputted through a force displacement transducer to a strain pressure amplifier and recorded with a rectigraph.
Any variable point (peak) with amplitude (tension) of 0.2 g or lower was excluded from analysis. Samples meeting any of the following criteria were rejected or removed from analysis.
Microsoft® Excel 2000 (Microsoft Corp.) was used for summing up or calculating data and preparing figures and tables. […] This EC50 value was used to calculate the concentration ratio (CR) of EC50 when an antagonist was added (for each sample) to that when no antagonist was added (mean value of the whole control group) and the logarithmic value of CR-1 (log [CR-1]).
Then, the added concentration of the antagonist was plotted on the X axis (logarithmic value) and log(CR-1) on the Y axis (Schild plot) to calculate the value of the X-axis intercept (pA2) and slope of the line using linear approximation (Schild regression^5). The slope was statistically compared with a slope of 1 (paired t-test; a probability level of less than 5% was considered significant). […] The mean and standard error were calculated for each data point obtained and indicated to two decimal places (or in 3 significant digit).

[2] = tested on: uterine muscle isolated from pregnant rats; experiment: PG F2α-induced contraction of uterine muscle isolated from pregnant rats; format: cell-based, rat; details: Rattus norvegicus, contraction induced with 5 μg/mL of PG F2α, mean ± standard error of 10 samples
Description: (§1) After SD-strain rats on Day 17 of pregnancy were exsanguinated to death, the uterus was isolated to prepare up to 8 myometrial strips (about 4 mm×10 mm) per animal in the direction of the longitudinal muscle while avoiding the adhesion to the placenta. Each strip was suspended in an organ bath containing 10 mL of a modified Locke-Ringer solution at […] (aerated with 95% O2+5% CO2 gas) with a load of about 1.0 g. After the suspended sample became stable for static tension, 5 μg/mL of PG F2α or 1 mU/mL of oxytocin was added to induce contraction. After the sample was allowed to stand for at least 30 minutes to confirm stable rhythmic contraction for frequency and amplitude, the test, control, or positive control substance solution was added cumulatively at intervals of 5 minutes. After the treatment was completed, 1×10^−5 mol/L of forskolin was added to obtain maximal relaxation. The contractile force of the uterine sample was delivered via a force displacement transducer to a strain pressure amplifier and recorded on a Rectigraph.
(§2) Considering the sum of the uterine contraction for 5 minutes before treatment as 100%, the response rate to each concentration of the test, control, or positive control substance solution was calculated from the sum of uterine contraction after treatment for both PG F2α and oxytocin induced contraction. Then, the response rates obtained were used to prepare a concentration-response curve for each sample. The maximum relaxation obtained by adding forskolin was considered as a baseline. Variable points (peaks) with amplitude (tension) of […] or lower were excluded from analysis. Samples showing any of the following events were not used for the study or excluded from analysis.
(§3) Microsoft® Excel 2000 (Microsoft Corp.) was used to sum up and calculate data and prepare tables and figures. Using a concentration-response curve prepared for each sample (X axis: log value of the concentration of the substance added, Y axis: response rate), a negative log value (pEC50) of the concentration that inhibited the uterine contraction by 50% (EC50) was calculated from a straight line connecting the 2 concentrations just above and below 50%, and then converted to EC50 (unit: mol/L).

[3] = tested on: uterine muscle isolated from pregnant rats; experiment: Oxytocin-induced contraction of uterine muscle isolated from pregnant rats; format: cell-based, rat; details: Rattus norvegicus, contraction induced with 1 mU/mL of oxytocin, mean ± standard error of 10 samples
Description: as §1, §2, §3

[4] = tested on: heart rate and mean blood pressure of dam; experiment: Heart rate and mean blood pressure of dam in anesthetized pregnant rats; format: in vivo, rat; details: intravenous cumulative dosing
Description: Rats were anesthetized with urethane, and experiments were conducted based on balloon method. Uterine activity and mean blood pressure of dam were led to a pressure amplifier via a pressure transducer. As for heart rate, pulse waves were led to tachometer. Recti-graphs were used for recording. The test substance, control substance, or positive control substance was administered intravenously and cumulatively every 15 minutes, while doses were increased gradually.

pregnant sheep = experiment: Oxytocin-induced uterine contractions, cardiovascular system and general metabolism of pregnant sheep and their fetuses; format: in vivo
Description: MN-221 (0.001, 0.003, 0.01, 0.03, 0.1 and 0.3 μg/kg/min) was weighed and dissolved in physiological saline. At 123-125 days of pregnancy, sheep were infused with oxytocin (1.0 mU/kg/min) to induce uterine contractions. One hour later, MN-221 was infused for 3 consecutive hours beginning at a dose of 0.001 μg/kg/min for 30 min and increasing stepwise every 30 min to 0.3 μg/kg/min in the MN-221 group (N=4). The control received saline instead (N=4).

[5] = tested on: uterine muscles isolated from pregnant rabbits; experiment: Oxytocin-induced contractions of isolated uterine muscles of pregnant rabbits (organ bath); format: cell-based, rabbit
Description: Uterine muscles of pregnant rabbits were isolated, and experiments were conducted based on organ-bath method. After specimens of uterine muscles were suspended and oxytocin (1 mU/mL)-induced contractions was stabilized, the test substance, control substance or positive control substance was administered every 10 min, while doses were increased gradually. Efficacy of drugs was evaluated by comparing the sum of uterine contraction for 10 min before and after administration of drugs, defining the former as 100%.

## CN(C)C(=O)COc1ccc2c(c1)C[C@@H](NC[C@H](O)c1ccc(O)c(CCO)c1)CC2 [MN-221, (−)-bis(2-{[(2S)-2-({(2R)-2-hydroxy-2-[4-hydroxy-3-(2-hydroxyethyl)phenyl]ethyl}amino)-1,2,3,4-tetrahydronaphthalen-7-yl]oxy}-N,N-dimethyl-acetamide) monosulfate]
[1]; MN-221, control group (treated with distilled water), read-out: EC50
  EC50: 0.843 ± 0.221 nM
[1]; MN-221, control group (treated with distilled water), read-out: pD2 (converted)
  EC50: 0.676 nM
[1]; MN-221 after pretreatment with CGP 20712A 1 × 10^−8 mol/L, read-out: EC50
  EC50: 0.868 ± 0.15 nM
[1]; MN-221 after pretreatment with CGP 20712A 1 × 10^−8 mol/L, read-out: pD2 (converted)
  EC50: 0.692 nM
[1]; MN-221 after pretreatment with CGP 20712A 1 × 10^−9 mol/L, read-out: EC50
  EC50: 1.25 ± 0.148 nM
[1]; MN-221 after pretreatment with CGP 20712A 1 × 10^−9 mol/L, read-out: pD2 (converted)
  EC50: 1.15 nM
[1]; MN-221 after pretreatment with CGP 20712A 3 × 10^−9 mol/L, read-out: EC50
  EC50: 1.05 ± 0.278 nM
[1]; MN-221 after pretreatment with CGP 20712A 3 × 10^−9 mol/L, read-out: pD2 (converted)
  EC50: 0.692 nM
[1]; MN-221 after pretreatment with ICI 118,551 1 × 10^−8 mol/L, read-out: EC50
  EC50: 23.1 ± 6.39 nM
[1]; MN-221 after pretreatment with ICI 118,551 1 × 10^−8 mol/L, read-out: pD2 (converted)
  EC50: 16.6 nM
[1]; MN-221 after pretreatment with ICI 118,551 3 × 10^−8 mol/L, read-out: EC50
  EC50: 50.9 ± 12.7 nM
[1]; MN-221 after pretreatment with ICI 118,551 3 × 10^−8 mol/L, read-out: pD2 (converted)
  EC50: 28.8 nM
[1]; MN-221 after pretreatment with ICI 118,551 3 × 10^−9 mol/L, read-out: EC50
  EC50: 4.6 ± 1.26 nM
[1]; MN-221 after pretreatment with ICI 118,551 3 × 10^−9 mol/L, read-out: pD2 (converted)
  EC50: 2.95 nM
[1]; MN-221 after pretreatment with SR 59230A 1 × 10^−8 mol/L, read-out: EC50
  EC50: 1.54 ± 1.08 nM
[1]; MN-221 after pretreatment with SR 59230A 1 × 10^−8 mol/L, read-out: pD2 (converted)
  EC50: 0.447 nM
[1]; MN-221 after pretreatment with SR 59230A 3 × 10^−8 mol/L, read-out: EC50
  EC50: 1.79 ± 0.499 nM
[1]; MN-221 after pretreatment with SR 59230A 3 × 10^−8 mol/L, read-out: pD2 (converted)
  EC50: 1.07 nM
[1]; MN-221 after pretreatment with SR 59230A 3 × 10^−9 mol/L, read-out: EC50
  EC50: 1.24 ± 0.338 nM
[1]; MN-221 after pretreatment with SR 59230A 3 × 10^−9 mol/L, read-out: pD2 (converted)
  EC50: 0.955 nM
[2]; read-out: EC50
  EC50: 66.4 ± 19.3 nM
[2]; read-out: pEC50 (converted)
  EC50: 51.3 nM
[3]; read-out: EC50
  EC50: 2.25 ± 0.44 nM
[3]; read-out: pEC50 (converted)
  EC50: 1.86 nM
[4]
  decrease in mean blood pressure of dam: significantly small
  effect to increase heart rate of dam: significantly weaker than that of any of other agents
Pregnant sheep; MN-221 group versus control (saline) group
  maternal heart rate, diastolic and mean blood pressure, base excess, blood K+, blood lactate, plasma glucose, insulin, non-esterified fatty acid levels, fetal plasma glucose and insulin levels: Significant differences between the two groups
Pregnant sheep; at doses over 0.03 μg/kg/min, infusion, oxytocin 1.0 mU/kg/min, pregnant sheep
  suppression of oxytocin-induced uterine contractions: more than 90%
Pregnant sheep; pregnant sheep and fetuses, stepwise infusion 0.001 to 0.3 μg/kg/min
  cardiovascular and metabolic side effects: reduced cardiovascular and metabolic side effects
[5]; Oryctolagus cuniculus, oxytocin (1 mU/mL)-induced contractions, pregnant rabbit uterine muscles, read-out: pD2 values (converted)
  EC50: 2.51 nM
[5]; oxytocin (1 mU/mL)
  inhibitory effect against oxytocin-induced contractions of isolated uterine muscles: demonstrated inhibitory effect
[5]; pregnant rabbit uterine muscles
  inhibitory effect against oxytocin-induced contractions of uterine muscles, comparison: clearly stronger than that of HSR-81, ritodrine and terbutaline
